The values that follow come from paper PMC6253249, “Protein-Ligand Fishing in planta for Biologically Active Natural Products Using Glutathione Transferases” (Frontiers in Plant Science, 2018).

One assay has as its target T1, AtGSTF2 (Arabidopsis thaliana, UniProt P46422).
T1 construct: Strep-tag (N); made in house; host or cells: Escherichia coli (minimal medium)
T1 sequence (P46422 1-212): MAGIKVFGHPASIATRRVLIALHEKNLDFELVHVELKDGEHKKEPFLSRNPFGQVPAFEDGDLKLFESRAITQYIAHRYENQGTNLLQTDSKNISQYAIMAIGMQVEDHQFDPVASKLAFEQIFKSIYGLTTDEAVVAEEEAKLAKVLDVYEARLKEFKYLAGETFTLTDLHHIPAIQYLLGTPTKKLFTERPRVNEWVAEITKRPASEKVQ
Kind of assay: Isothermal titration calorimetry (ITC) of ligand binding to Strep-tagged AtGSTF2. As to conditions: for N (binding stoichiometry) / ΔH: 25°C, HBS, 1 mM glutathione, 0.1% w/v Tween 20. As for the experimental part: (§1) Isothermal titration calorimetry (ITC) experiments were performed at 25°C in HBS buffer and analyzed using a VP-ITC instrument with Origin 7.0 software (GE Healthcare, Amersham, United Kingdom). Where ligands were added in solvents, an equivalent volume of ethanol was used as control. With the flavonols, 0.1% w/v Tween 20 was used to increase ligand solubility. In addition to titrating ligand into protein, control titrations of ligand into buffer and buffer into protein were performed. For studies with AtGSTF2, the respective Strep-tagged protein was purified from E. coli grown in minimal medium to minimize contamination with pre-bound ligands and used in ITC assuming 1:1 binding to ligand, as previously determined ([Dixon et al., 2011]).
(§2) To investigate the binding characteristics of the ligands to the GSTs, isothermal titration calorimetry (ITC) was used to determine binding affinity and stoichiometry. With AtGSTF2 the commercially available compounds kaempferol and kaempferol-3,7′-dimethylether were used, along with the methylated flavonols purified from the surface of the tobacco leaves (Table 2 and Supplementary Figure S4). […] When AtGSTU19 was tested with ISSG, tight and stoichiometric binding was determined (Table 2 and Supplementary Figure S5). AtGSTU19 enzyme activity, as determined by the GSH conjugation of 1-chloro-2,4-dinitrobenzene, was inhibited by ISSG in a competitive manner with respect to GSH, confirming that ISSG binding occurred at the enzyme active site.
Supplementary Figure S4. Typical ITC data for GSTF2 (7.7 µM) binding to compound 11 (putative kaempferol-3,7’-dimethylether). The experiment was performed in HBS containing 1 mM GSH, 0.1% Tween 20 and 1% ethanol. The associated line indicates best fit curves for a one set of sites binding model.
(In ITC the heat of successive injections is recorded.)

The target in the next assay is T2, GSTU19 (Arabidopsis thaliana, UniProt Q9ZRW8).
T2 construct: recombinant, Strep-tagged
T2 sequence (Q9ZRW8 whole entry): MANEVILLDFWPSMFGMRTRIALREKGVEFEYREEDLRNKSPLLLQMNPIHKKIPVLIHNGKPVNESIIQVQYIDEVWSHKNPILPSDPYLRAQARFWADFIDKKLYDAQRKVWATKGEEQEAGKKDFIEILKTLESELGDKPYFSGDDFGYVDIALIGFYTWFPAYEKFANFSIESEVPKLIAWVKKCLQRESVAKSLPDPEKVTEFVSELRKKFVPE
Kind of assay: Isothermal titration calorimetry at 25 °C in HBS, ligand titrated into GSTU19, no GSH marked for these rows, one-set-of-sites fit. The class given is binding. As to conditions: read-out: Ka (μM^-1) (converted). How it is done: as §1
To investigate the binding characteristics of the ligands to the GSTs, isothermal titration calorimetry (ITC) was used to determine binding affinity and stoichiometry. […] When AtGSTU19 was tested with ISSG, tight and stoichiometric binding was determined (Table 2 and Supplementary Figure S5). AtGSTU19 enzyme activity, as determined by the GSH conjugation of 1-chloro-2,4-dinitrobenzene, was inhibited by ISSG in a competitive manner with respect to GSH, confirming that ISSG binding occurred at the enzyme active site. […]

The subject of a further assay is GSTUs from poppy. On the set-up: method as in Yu and Facchini, 2000. To be noted: ref Yu and Facchini, 2000; cited from earlier work.
Assay [1] addresses T3, AtGSTU19 (Arabidopsis thaliana, UniProt Q9ZRW8).
T3 construct: Strep-tag (N)
Kind of assay: Isothermal titration calorimetry (ITC) of ligand binding to AtGSTU19. To be noted: 25°C, HBS, no cofactor listed. How it is done:
as §1, §2
Supplementary Figure S5. Analysis of GSTU19 ligand binding by ITC.
Binding of ISSG to 11.1 uM GSTU19. A best fit line corresponding to a one set of
sites binding model is shown.

Assay [2] addresses T3, AtGSTU19. In words: AtGSTU19 enzyme activity, GSH conjugation of 1-chloro-2,4-dinitrobenzene, inhibition. Type of assay: biochemical. To be noted: with respect to GSH; substrate 1-chloro-2,4-dinitrobenzene. As for the experimental part:
as §2

The structures appear in SMILES notation.

T3 sequence (Q9ZRW8 whole entry): as above

For `O=c1c(O)c(-c2ccc(O)cc2)oc2cc(O)cc(O)c12` [kaempferol, reference compound], at AtGSTF2, the Kd was 12000 nM, the “N (binding stoichiometry)” value stood at 0.60 ± 0.05 and the ΔH was -12.6 ± 1.4 kcal/mol.

Consider `N[C@@H](CCC(=O)N[C@@H](CSSCc1c[nH]c2ccccc12)C(=O)NCC(=O)O)C(=O)O` [ISSG, 3-methylindolyl glutathionyl disulfide], for which the Kd at GSTU19 was 0.117 µM.

`COc1cc(/C=C/C(=O)NCCc2ccc(O)cc2)ccc1O` [feruloyltyramine, N-trans-feruloyltyramine]: the “Inhibition of poppy GSTUs (in words)” value with GSTUs from poppy is reported as “weakly inhibiting”.

With `COc1ccc(-c2oc3cc(OC)cc(O)c3c(=O)c2OC)cc1` [Compound 13, kaempferol-3,7,4′-trimethylether], at AtGSTF2, the Kd was below 1000 nM, the “N (binding stoichiometry)” value is recorded as 0.54 ± 0.01 and the ΔH is reported as -18.4 ± 0.2 kcal/mol.

`CCCCCCSC[C@H](NC(=O)CC[C@H](N)C(=O)O)C(=O)NCC(=O)O` [S-hexylglutathione, reference compound]: at AtGSTU19 [1], the “N (binding stoichiometry)” value is 0.84 ± 0.01 and the ΔH is -11.8 ± 0.1 kcal/mol.

Turning to `NC(CCC(=O)NC(CSSCc1c[nH]c2ccccc12)C(=O)NCC(=O)O)C(=O)O` (stereo not drawn) [ISSG, 3-methylindolyl glutathionyl disulfide], on AtGSTU19 [1], the “N (binding stoichiometry)” value is 0.98 ± 0.01 and the ΔH was -10.6 ± 0.1 kcal/mol. At AtGSTU19 [2], the “Mode of inhibition of AtGSTU19 enzyme activity” value is “competitive”.

Turning to `CCCCCCSC[C@H](NC(=O)CC[C@H](N)C(=O)O)C(=O)NCC(=O)O` [S-hexylglutathione], the Kd on GSTU19 is 0.311 µM.

Molecule `COc1cc(O)c2c(=O)c(OC)c(-c3ccc(O)cc3)oc2c1` [Compound 11, kaempferol-3,7′-dimethylether] came in with a Kd at AtGSTF2 of 220 nM.
